Measurements published in patent publication US20250066286A1, “COMPOSITIONS OF (Z)-ENDOXIFEN AND METHODS OF ENRICHMENT THEREOF” (Atossa Therapeutics, Inc., priority 2022, published 2025).
Read-outs that look alike come from different tables or passages of the source. Blank lines part the entries; values can stand above or below the molecule they belong to.

How the values were obtained:
Format in all cases: physicochemical
[1] = Mechanical stability: grinding and kneading by ball milling (XRPD); settings: for XRPD pattern after mechanical grinding: 10 minutes ball milling at 30 Hz; for XRPD pattern after kneading: 10 minutes ball milling at 30 Hz with catalytic 2-propanol (2 μl)
Experimental: Stability tests were performed on mixtures of Form I and Form IV; Form I and Form VII; and Form I, Form IV, and Form VII. In a first mechanical stability test, the polymorphs were analyzed by XRPD following 10 minutes of grinding by ball milling at 30 Hz. In a second mechanical stability test, the polymorphs were analyzed by XRPD following 10 minutes of kneading by ball milling at 30 Hz in the presence of a catalytic amount of 2-propanol (2 μl).

[2] = Thermogravimetric analysis (TGA), degradation
Experimental: The TGA profile of Form I is shown in the top panel of FIG. 12 with the heat-flow profile in the middle panel of FIG. 12, and the first derivative of the TGA profile in the bottom pane of FIG. 12. […] A weight loss of 0.2% was detected between 140° C. and 180° C., potentially ascribable to solvent release. Degradation of Form I took place above 270° C. The heat-flow profile included two main peaks around 50° C. and 160° C. The first derivative of the TGA profile indicated a greatest decline in the TGA profile occurred around 400° C., and that weight loss occurred around 320° C.

[3] = Storage stability of polymorphic forms at room temperature in a sealed vial (XRPD time course)
Experimental: Form I samples were collected for XR-PD analysis following 0, 7, and 42 days of storage, the results of which are shown in FIG. 10.
The stability of polymorphic Form IV was evaluated over 7 days of storage at room temperature in a sealed vial. Portions of the Form IV samples were collected for XRPD analysis following 0 (Form IV), 3 (Form IV-3D3-storage), and 7 days (Form IV-7D3-storage) of storage, the results of which are shown in FIG. 14.
The stability of polymorphic Form IV was also evaluated following crystallization from a room temperature 2-propanol/THF 95/5 (v/v) solvent system containing 40 mg/ml (Z)-endoxifen. XPRD was collected immediately after recovery and following 15 days storage at room temperature in a sealed vial. FIG. 15 provides the resultant XRPD patterns following 15 days storage (Form IV-2PR/THF-15D-storage) and 0 days storage (Form IV-2PR/THF-0D-storage), as well as an XRPD spectrum of Form IV (Form IV) obtained from 2-propanol recrystallization.
Since the room temperature evaporation in acetone yielded a mixture of polymorphic Form I and Form IV XRPD patterns with a very intense unassigned signal at 16.1° 2θ, the sample was re-measured following 7 days storage in a sealed vial. From top to bottom, FIG. 16 provides XRPD patterns of the acetone-generated polymorphs following 7 (EVRT-ACT-7D-storage) and 0 days of storage (EVRT-ACT-0D-storage), a Form IV spectrum (Form IV), and a Form I (Form I) spectrum, respectively.
Form XVII was further assessed after 3 days storage in a sealed vial at room temperature.
Form XVIII was further reassessed by XRPD following 3 and 7 days storage at room temperature in a sealed vial. The data from these analyses are summarized in FIG. 24, which (from top to bottom) provides the sample following 7 days storage (Form XVIII-7D-storage), the sample following 3 days storage (Form XVIII-3D-storage), and the sample immediately following crystallization (Form XVIII).
Form XIX room temperature stability was evaluated with XRPD. XRPD of a Form XIX sample immediately following crystallization (Form XIX) and following 7 days of storage (Form XIX-7D-storage) are shown in FIG. 26.
The stability of polymorphic Form V was over 10 days of storage at room temperature in a sealed vial. XR-PD was performed following 0, 3, and 10 days storage.
To evaluate Form VI stability, XRPD spectra of a Form VI sample were collected following 0, 3, and 14 days of room temperature storage in a sealed vial. The resulting XRPD patterns of the sample following 0 (Form VI), 3 (Form VI-3D-storage), and 14 days storage (Form VI-14D-storage) are shown in FIG. 30.
The stability of polymorphic Form VII was evaluated over 7 days of storage at room temperature in a sealed vial. Portions of the Form VII samples were collected for XRPD analysis over 7 days of storage, the results of which are shown in FIG. 32.
Form VIII stability over 7 days storage in a sealed vial at room temperature was evaluated with XRPD.
The stability of Form IX generated by precipitation from an ethyl acetate/heptane solvent system (Form IX Recrystallization (1)) was evaluated over 7 days of storage at room temperature. Portions of the Form IX sample were collected following 0 and 7 days of storage in a sealed vial and analyzed by XRPD analysis to identify possible changes in the polymorph.
Form IX stability was separately characterized for crystals generated through the addition of (Z)-endoxifen saturated ethyl acetate to heptane (Form IX Recrystallization (2)), which yielded higher crystallinity Form IX than was afforded by heptane addition to (Z)-endoxifen saturated ethyl acetate.
Form IX stability was further evaluated for crystals generated by precipitation from an acetone/butyl methyl ether (acetone/BME) solvent/antisolvent mixture (Form IX Recrystallization (4)). Portions of the Form IX sample were collected following 0 and 5 days of storage in a sealed vial at room temperature and compared to reference XRPD patterns of Forms VII and IX. […]

[4] = Stability at various temperatures and relative humidities, seven days (XRPD); settings: 7 days
Experimental: The stabilities of the polymorphs were also assessed at various temperatures and relative humidities. These analyses were performed by storing 20 mg of polymorph samples for seven days at: (1) 25° C. and 100% relative humidity, (2) 40° C. and 75% relative humidity, (3) 25° C. and 60% relative humidity, and (4) at 60° C. and 75% relative humidity. XRPD was collected on the samples following these incubations and compared to XRPD of the samples prior to storage.

[5] = 25° C. and 100% relative humidity
[6] = 40° C. and 75% relative humidity
[7] = 3 days, room temperature, sealed vial
[8] = 7 days, room temperature, sealed vial

Degradation temperature (TGA) [2]: above 270 °C
Degradation temperature (TGA) ([2]; sample from scaled-up crystallization): 270 °C
XRPD change on storage ([3]; 0, 7, and 42 days of storage): stable under ambient conditions
Compound: CC/C(=C(\c1ccc(O)cc1)c1ccc(OCCNC)cc1)c1ccccc1 [Form I, (Z)-endoxifen]
XRPD pattern after mechanical grinding [1]: converted portions of Form I to amorphous endoxifen
XRPD pattern after kneading [1]: converted portions of Form I to amorphous endoxifen
XRPD pattern after storage [4, 5]: did not induce detectable changes in the Form I XRPD
XRPD pattern after storage [4, 6]: no significant changes to the XRPD pattern

Degradation temperature (TGA) [2]: above 270 °C
XRPD change on storage ([3]; 7 days, room temperature, sealed vial, Form IX Recrystallization (1), ethyl acetate/heptane): stable under ambient conditions
Compound: CC/C(=C(\c1ccc(O)cc1)c1ccc(OCCNC)cc1)c1ccccc1 [Form IX, (Z)-endoxifen]
XRPD change on storage ([3]; 5 days, room temperature, sealed vial, Form IX from acetone/butyl methyl ether (Form IX Recrystallization (4))): new signal at 9.1° 2θ, possibly indicating the presence of Form VII as well as partial amorphization of the sample
XRPD change on storage ([3]; 7 days, room temperature, sealed vial, Form IX Recrystallization (2)): weak XRPD signals ascribable to small amounts of Form I
XRPD change on storage ([3]; 8 days, room temperature, sealed vial, Form IX from room temperature ethyl acetate/heptane 50/50 (v/v) slurries, unassigned signals at 10.1, 11.7, 16.8, 18.5, 19.4, 23.1): these peaks persisted following 8 days of storage
XRPD change on storage ([3]; 13 days, room temperature, sealed vial, Form IX Recrystallization (2)): weak XRPD signals ascribable to small amounts of Form I

XRPD change on storage [3, 7]: converted almost completely to Form VI
XRPD change on storage ([3]; 10 days, room temperature, sealed vial): completely to Form VI
Compound: CC/C(=C(\c1ccc(O)cc1)c1ccc(OCCNC)cc1)c1ccccc1 [Form V, (Z)-endoxifen]

XRPD change on storage ([3]; 14 days, room temperature, sealed vial): stable under ambient conditions
Compound: CC/C(=C(\c1ccc(O)cc1)c1ccc(OCCNC)cc1)c1ccccc1 [Form VI, (Z)-endoxifen]

Degradation temperature (TGA) [2]: above 270 °C
XRPD change on storage [3, 8]: stable under ambient conditions
Compound: CC/C(=C(\c1ccc(O)cc1)c1ccc(OCCNC)cc1)c1ccccc1 [Form VII, (Z)-endoxifen]
XRPD pattern after storage [4, 5]: no significant change to the XRPD pattern
XRPD pattern after storage [4, 6]: no significant change to the XRPD pattern

XRPD change on storage [3, 8]: no significant difference
Compound: CC/C(=C(\c1ccc(O)cc1)c1ccc(OCCNC)cc1)c1ccccc1 [Form VIII, (Z)-endoxifen]

XRPD change on storage [3, 8]: near complete conversion to Form XI
Compound: CC/C(=C(\c1ccc(O)cc1)c1ccc(OCCNC)cc1)c1ccccc1 [Form X, (Z)-endoxifen]

XRPD change on storage ([3]; 18 days, room temperature): stable under ambient conditions
Compound: CC/C(=C(\c1ccc(O)cc1)c1ccc(OCCNC)cc1)c1ccccc1 [Form XI, (Z)-endoxifen]

XRPD change on storage ([3]; 2 days, room temperature, sealed vial): stable under ambient conditions
Compound: CC/C(=C(\c1ccc(O)cc1)c1ccc(OCCNC)cc1)c1ccccc1 [Form XII, (Z)-endoxifen]

XRPD change on storage [3, 7]: partial conversion to Forms I and VII
XRPD change on storage [3, 8]: partial conversion to Forms I and VII
Compound: CC/C(=C(\c1ccc(O)cc1)c1ccc(OCCNC)cc1)c1ccccc1 [Form XIV, (Z)-endoxifen]

XRPD change on storage [3, 8]: stable under ambient conditions
Compound: CC/C(=C(\c1ccc(O)cc1)c1ccc(OCCNC)cc1)c1ccccc1 [Form XIX, (Z)-endoxifen]

Room temperature stability ([3]; duration not given): limited room temperature stabilities
Compound: CC/C(=C(\c1ccc(O)cc1)c1ccc(OCCNC)cc1)c1ccccc1 [Form XV, (Z)-endoxifen]

Compound: CC/C(=C(\c1ccc(O)cc1)c1ccc(OCCNC)cc1)c1ccccc1 [Form XVII, (Z)-endoxifen]
XRPD change on storage [3, 7]: complete conversion of Form XVII (Form XVII) into Form I

XRPD change on storage [3, 8]: partial amorphization
Compound: CC/C(=C(\c1ccc(O)cc1)c1ccc(OCCNC)cc1)c1ccccc1 [Form XVIII, (Z)-endoxifen]

XRPD change on storage [3, 8]: No significant changes were detected
Compound: CC/C(=C(\c1ccc(O)cc1)c1ccc(OCCNC)cc1)c1ccccc1 [Forms I and IV polymorphic mixture, (Z)-endoxifen]

Compound: CC/C(=C(\c1ccc(O)cc1)c1ccc(OCCNC)cc1)c1ccccc1 [first mixture of Form I and Form VII, (Z)-endoxifen]
XRPD pattern after mechanical grinding [1]: amorphous (Z)-endoxifen with signals ascribable to Form I and Form VII

XRPD pattern after mechanical grinding [1]: Form I with traces of Form IV
XRPD pattern after storage ([4]; 25° C./60% RH): mixture of Form I and Form IV
XRPD pattern after storage ([4]; 60° C./75% RH): XRPD pattern of Form I
Compound: CC/C(=C(\c1ccc(O)cc1)c1ccc(OCCNC)cc1)c1ccccc1 [mixture of Form I and Form IV, (Z)-endoxifen]
XRPD pattern after kneading [1]: Form I with a signal at 4.8° 20 ascribable to Form IV

XRPD pattern after storage ([4]; 25° C./60% RH): mixture of Form I, Form IV, and Form VII
XRPD pattern after storage ([4]; 60° C./75% RH): mixture of Form I and Form VII
Compound: CC/C(=C(\c1ccc(O)cc1)c1ccc(OCCNC)cc1)c1ccccc1 [mixture of Form I, Form IV, and Form VII, (Z)-endoxifen]
XRPD pattern after mechanical grinding [1]: Form I with a slightly lowered degree of crystallinity
XRPD pattern after kneading [1]: Form I with a mild signal at 4.8° 20 ascribable to Form IV

XRPD change on storage ([3]; 4 days, room temperature, sealed vial): conversion of Form XIII to Form XII
XRPD change on storage ([3]; 5 days total, room temperature, sealed vial): conversion to only Form XII
Compound: CC/C(=C(\c1ccc(O)cc1)c1ccc(OCCNC)cc1)c1ccccc1 [mixture of Form XII and Form XIII, (Z)-endoxifen]

Compound: CC/C(=C(\c1ccc(O)cc1)c1ccc(OCCNC)cc1)c1ccccc1 [second mixture of Form I and Form VII, (Z)-endoxifen]
XRPD pattern after mechanical grinding [1]: Form I and Form VII with slightly lowered crystallinity
